{"source": "patent US5217965A", "about": "“Stabilized solid dosage forms of choline metal carboxymethylcellulose salicylate compositions” (Euroceltique, S.A., priority 1991, dated 1993)", "origin": "cited, not measured here", "conditions": "background", "data": [{"smiles": "C[N+](C)(C)CCO.O=C([O-])c1ccccc1O", "note": "[Choline salicylate]", "values": [{"measurement": "Hygroscopicity", "result": "highly hygroscopic"}]}]}
